# What was measured:
# pS6K = assay: S6K phosphorylation western blot in A549 cells; type: cell-based; conditions: 24 hrs
# From the text: (§1) Membranes were blocked using Odyssey Blocking Buffer (LI-COR) for 1 hr at room temperature. […] Primary antibodies used in these studies include: MycN (CST; 1:500 dilution), Actin (SCBT; 1:2000 dil.), cMYC (CST; 1:500 dil.), pAKT (S473; CST; 1:500 dil.), AKT (CST; 1:2000), pP70 (T389; CST; 1:1000) P70 (CST; 1:1000).
# We then tested whether mTORC2 complex was disrupted by isopomiferin treatment. […] to enable translation. We tested whether phosphorylation of S6K was inhibited by isopomiferin by treating SK-N-Be2 cells to 10 μM and 20 μM isopomiferin for 24 hours and blotting for pS6K, using total S6K protein as a loading control. […] We then tested whether this was consistent across cell lines by performing a similar experiment in an NSCLC cell line, A549.
# MYC protein = assay: Western blot of MYC protein in SCLC lines NCI-H69 and NCI-H209; type: cell-based; conditions: NCI-H69 and NCI-H209, 24 h
# From the text: as §1
# [1] = Tolerability in tumor-bearing mice; type: in vivo; conditions: 10 mg/kg i.p., 24 hrs
# Procedure: 6-week old male mice were purchased from Charles River Laboratories, and housed in Columbia University's animal control barrier facilities, and mice were allowed one week to acclimate to their new environment. To establish tumor xenografts, 10×10^6 SK-N-Be2 cells were suspended in a 200 μL volume of 50% matrigel slurry. […] Mice were kept on standard chow diet (Purina), and their cage dressing changed twice weekly. Animals were investigated regularly for any sign of discomfort. […] To create the stock solution of isopomiferin, 5 mg of isopomiferin (MicroSource) was dissolved into 50 μL dimethyl sulfoxide (DMSO). To this 450 μL of cyclodextrin solution was added dropwise. Cyclodextrin is dissolved as a 50% w/v solution in 40% EtOH. It is important to add the cyclodextrin slowly and with continual mixing to solubilize the compound. This solution was added to one volume of PBS and filter-sterilized. This solution was then diluted to achieve appropriate concentrations for a 200 μL volume administration at 10 mg/kg to each mouse. The solution was administered to animals via intraperitoneal injection (i.p.). […]
# The ability of the compounds to inhibit growth of MYCNA tumor xenografts was evaluated by treating tumor bearing mice with daily i.p. injections of 20 mg/kg isopomiferin or pomiferin. […] MYCN abundance was evaluated mid-experiment, following 14 days of treatment.
# pAKT (Ser473) = pAKT (Ser473) western blot in SK-N-Be2 cells; type: cell-based, human; conditions: growth factor induced
# From the text: as §1
# We first tested whether isopomiferin disrupted […] signaling in NBL by treating SK-N-Be2 cells to isopomiferin and blotting for pAKT abundance. Treatment with […] (EGF) induces pAKT1 through mTOR signaling. We tested whether isopomiferin had the ability to disrupt mTOR signaling by pre-treating cells with isopomiferin for 2 hrs, following which cells were treated with 10 ng/ml EGF for 30 minutes to induce pAKT1. […] Total AKT abundance was used as a loading control to confirm that isopomiferin was simply not suppressing expression of AKT abundance.
# CCL5 transcript = assay: qPCR of CCL5 transcript in A549 cells; type: cell-based; conditions: 48 hr
# Procedure: Reverse transcription quantitative polymerase chain reaction (RT-qPCR) was used to quantify transcript abundance of genes of interest. Total RNA was isolated from cells using the Qiaquick RNeasy isolation kit following manufacturer's instruction (QIAGEN). RNA quality and abundance was measured using a nanodrop spectrophotometer. A total of 2 μg RNA was used as a template for reverse transcription reactions. cDNA synthesis was performed using TaqMan reverse transcriptase following the manufacturer's instructions, using both oligod(T) and random hexamers as primers for RT reactions. RNAse treatment of cDNA removed any residual RNA in cDNA samples. cDNA samples were diluted 10-fold into nuclease-free dH2O, and used as the template for quantitative PCR reactions were performed in a Viia7 […] thermocycler using SYBR green and gene-specific primers (Table 1). qPCR reactions were performed using the Viia7 Real-Time PCR system (Applied Biosystems), and relative transcript abundance evaluated using the deltaCT method, using the GAPDH housekeeping gene as normalization control.
# In lung cancer, cMyc overexpression suppresses CCL5, an antigen that enables the immune system to detect cancer cells (Topper et al. 2017). By suppressing CCL5, cMyc enables tumors to evade immune surveillance (Topper et al. 2017). […]
# [2] = system: cancer cell lines and non-transformed cells; conditions: Darji et al. 2013; Son et al. 2007; cited from earlier work
# CK2a2 = target: T1, CK2a2 (Homo sapiens, UniProt P19784); assay: Cell-free biochemical CK2a2 kinase assay
# T1 construct: purchased Reaction Biology Corporation (Malvern, Pa.)
# T1 sequence (P19784 whole entry): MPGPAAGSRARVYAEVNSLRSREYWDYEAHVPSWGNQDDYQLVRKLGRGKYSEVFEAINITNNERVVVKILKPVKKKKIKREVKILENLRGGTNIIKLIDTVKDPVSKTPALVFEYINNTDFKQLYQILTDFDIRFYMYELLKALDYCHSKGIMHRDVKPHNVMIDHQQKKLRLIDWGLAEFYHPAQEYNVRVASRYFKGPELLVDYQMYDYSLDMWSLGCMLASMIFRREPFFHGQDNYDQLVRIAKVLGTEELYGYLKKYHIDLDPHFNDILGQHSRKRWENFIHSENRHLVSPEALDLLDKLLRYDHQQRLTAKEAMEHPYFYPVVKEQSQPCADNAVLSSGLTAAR
# Procedure: Cell-free biochemical kinase assays were performed at Reaction Biology Corporation (Malvern, Pa.). In brief, kinase substrates were diluted into reaction buffer containing 20 mM Hepes (pH 7.5), 10 mM MgCl2, 1 mM EGTA, 0.02% Brij35, 0.02 mg/ml BSA, 0.1 mM Na3VO4, 2 mM DTT, 1% DMSO. Purified protein (CK2a1, CK2a2, or mTOR) was added to the substrate solution and gently mixed. Test compounds were diluted from 10 mM DMSO stock solutions into the reaction buffer using an Echo550 acoustic dispenser, followed by incubation at RT for 20 min. 33P-ATP (10 μCi/μL) was added to reaction mixture, following incubation for 2 h at RT. Reactions were then spotted onto P81 ion exchange paper and kinase activity was detected by filter binding method.
# mutant isoform of CK2a1 = assay: Cell viability after expression of mutant CK2a1 isoform; conditions: versus GFP-expressing plasmid
Structure (SMILES),pS6K (pS6K),MYC protein abundance in SCLC lines (MYC protein),toxicity observed in animals [1],pAKT accumulation / AKT (Ser473) phosphoactivation (pAKT (Ser473)),pAKT accumulation / AKT (Ser473) phosphoactivation (pAKT (Ser473); listed as Isopomiferin),increase of CCL5 transcript (CCL5 transcript) [fold],potency in transformed cells relative to non-transformed cells [2] [fold],CK2a2 kinase activity (CK2a2),resistance conferred by mutant CK2 isoform (mutant isoform of CK2a1)
CC1(C)C=Cc2c(c3c(c4c(=O)c(-c5ccc(O)c(O)c5)coc24)OC(C)(C)CC3)O1 [isopomiferin],suppressed pS6K in A549 cells,suppressed MYC protein in both SCLC lines,No toxicity issues were observed,blocked pAKT accumulation in presence of EGF treatment,"inhibited phosphorylation of P70^S6K, as well as the IGF1-induced phosphoactivation of AKT (Ser473)",15,,,
CC(C)=CCc1c2c(c3occ(-c4ccc(O)c(O)c4)c(=O)c3c1O)C=CC(C)(C)O2 [pomiferin],,,,,,,> 10,inhibiting both isoforms equally in a concentration-dependent manner,modest resistance
